Measured values reported in patent US10457655B2, “Compounds and compositions for inhibition of FASN” (FORMA Therapeutics, Inc., priority 2013, dated 2019).
Read-outs that look alike come from different tables or passages of the source.

Molecular target: FASN enzyme (Homo sapiens, UniProt P49327)
Assay: Enzymatic Assay for FASN Inhibitors
Assay type: biochemical
Experimental: Assays were performed in a 384-well black plate to measure the inhibition of FASN activities by individual compounds herein disclosed. An aliquot of 250 nL of compound was incubated with 10 μL of 40 nM FASN enzyme in assay buffer (50 mM HEPES pH=7.3, 0.5 mM EDTA, 1 mM Ascorbate, 100 mM NaCl and 0.04% TritonX-100) in each well at 25° C. for 60 minutes. After the plate was centrifuged briefly, 10 μL of substrate mix (20 μM Acetyl-CoA, 60 μM Malonyl-CoA, and 100 μM NADPH in assay buffer) was added to each well. The reaction was maintained at 25° C. for 90 minutes. The reaction was then quenched by adding 10 μL of 90 μM 7-Diethylamino-3-(4′-Maleimidylpheynyl)-4-Methylcoumarin in 50/50 Ethanol/H2O solution. The assay plate was incubated at 25° C. for 15 minutes, and read on a plate reader with excitation and emission wavelength at 360 nm and 530 nm, respectively. The IC50 of a given compound was calculated by fitting the dose response curve with a four parameter logistic equation.

[1] = FASN enzymatic assay, Table 2-3

Sequence of FASN enzyme (P49327 whole entry): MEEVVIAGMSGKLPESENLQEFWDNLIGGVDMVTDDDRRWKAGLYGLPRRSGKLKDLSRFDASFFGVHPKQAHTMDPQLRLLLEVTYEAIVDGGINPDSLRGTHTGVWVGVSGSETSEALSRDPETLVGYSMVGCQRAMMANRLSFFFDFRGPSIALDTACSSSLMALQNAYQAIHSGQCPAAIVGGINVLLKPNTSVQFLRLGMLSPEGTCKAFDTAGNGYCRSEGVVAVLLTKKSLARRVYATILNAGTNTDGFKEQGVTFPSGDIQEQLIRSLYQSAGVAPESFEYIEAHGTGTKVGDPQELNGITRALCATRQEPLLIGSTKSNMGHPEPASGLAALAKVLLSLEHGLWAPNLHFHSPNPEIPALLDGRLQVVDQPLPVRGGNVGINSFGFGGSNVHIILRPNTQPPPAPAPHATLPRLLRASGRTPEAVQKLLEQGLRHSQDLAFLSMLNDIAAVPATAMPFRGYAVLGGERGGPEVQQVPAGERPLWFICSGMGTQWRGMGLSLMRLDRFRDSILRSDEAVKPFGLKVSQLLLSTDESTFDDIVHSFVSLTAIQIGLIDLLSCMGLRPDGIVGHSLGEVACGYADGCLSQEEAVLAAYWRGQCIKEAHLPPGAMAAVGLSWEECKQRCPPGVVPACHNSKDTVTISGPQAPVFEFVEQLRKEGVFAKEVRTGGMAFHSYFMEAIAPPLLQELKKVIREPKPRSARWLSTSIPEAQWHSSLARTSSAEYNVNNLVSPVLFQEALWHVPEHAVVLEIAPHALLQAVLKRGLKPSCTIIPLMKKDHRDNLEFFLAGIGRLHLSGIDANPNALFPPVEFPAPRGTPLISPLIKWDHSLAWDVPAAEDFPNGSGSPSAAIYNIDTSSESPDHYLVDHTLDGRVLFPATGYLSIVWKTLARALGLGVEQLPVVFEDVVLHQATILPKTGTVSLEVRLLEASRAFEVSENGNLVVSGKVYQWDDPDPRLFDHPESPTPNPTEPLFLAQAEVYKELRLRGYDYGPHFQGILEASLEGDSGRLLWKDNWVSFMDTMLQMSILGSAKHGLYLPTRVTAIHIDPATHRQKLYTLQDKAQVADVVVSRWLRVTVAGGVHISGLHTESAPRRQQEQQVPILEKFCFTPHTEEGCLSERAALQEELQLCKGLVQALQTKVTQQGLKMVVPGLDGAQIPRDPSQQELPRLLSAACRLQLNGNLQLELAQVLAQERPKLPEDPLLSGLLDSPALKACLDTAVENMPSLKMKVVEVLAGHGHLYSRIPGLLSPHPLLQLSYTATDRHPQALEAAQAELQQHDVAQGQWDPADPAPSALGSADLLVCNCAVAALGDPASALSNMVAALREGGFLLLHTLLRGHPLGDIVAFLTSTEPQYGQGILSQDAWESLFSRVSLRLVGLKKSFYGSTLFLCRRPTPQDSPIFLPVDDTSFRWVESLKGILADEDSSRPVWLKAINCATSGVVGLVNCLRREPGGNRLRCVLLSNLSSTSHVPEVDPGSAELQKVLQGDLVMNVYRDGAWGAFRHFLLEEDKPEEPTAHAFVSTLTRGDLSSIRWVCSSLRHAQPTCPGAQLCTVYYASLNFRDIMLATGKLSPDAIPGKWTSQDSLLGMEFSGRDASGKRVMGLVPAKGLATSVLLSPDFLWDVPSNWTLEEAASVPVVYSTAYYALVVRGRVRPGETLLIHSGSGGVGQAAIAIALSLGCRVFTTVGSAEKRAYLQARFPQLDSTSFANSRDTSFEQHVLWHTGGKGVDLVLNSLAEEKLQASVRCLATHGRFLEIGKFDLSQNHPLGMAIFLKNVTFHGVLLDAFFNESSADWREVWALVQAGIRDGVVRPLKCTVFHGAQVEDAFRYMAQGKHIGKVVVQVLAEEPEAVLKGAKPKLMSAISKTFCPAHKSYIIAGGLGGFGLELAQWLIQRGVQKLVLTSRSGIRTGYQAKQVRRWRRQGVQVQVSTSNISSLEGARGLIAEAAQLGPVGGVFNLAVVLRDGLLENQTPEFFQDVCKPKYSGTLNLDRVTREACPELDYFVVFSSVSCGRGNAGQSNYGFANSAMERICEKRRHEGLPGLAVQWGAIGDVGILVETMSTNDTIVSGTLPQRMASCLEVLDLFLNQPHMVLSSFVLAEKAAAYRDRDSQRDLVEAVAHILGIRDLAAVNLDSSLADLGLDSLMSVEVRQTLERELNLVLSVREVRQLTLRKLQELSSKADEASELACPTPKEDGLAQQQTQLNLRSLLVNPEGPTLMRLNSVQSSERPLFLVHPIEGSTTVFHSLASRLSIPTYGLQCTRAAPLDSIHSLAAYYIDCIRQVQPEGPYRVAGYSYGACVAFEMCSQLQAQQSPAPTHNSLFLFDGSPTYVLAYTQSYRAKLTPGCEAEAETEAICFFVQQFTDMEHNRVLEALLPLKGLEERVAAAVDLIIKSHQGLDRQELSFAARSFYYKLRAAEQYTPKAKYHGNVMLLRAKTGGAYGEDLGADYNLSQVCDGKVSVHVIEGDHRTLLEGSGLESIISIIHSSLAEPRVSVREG

Row | SMILES | IC50 [nM] | other results
1 | Cn1cnc2cc(-c3ccc(C(=O)N4CCN(C(=O)C5(O)CC5)CC4(C)C)cc3)ccc21 | < 500 | 
2 | Cn1cc2ccc(-c3ccc(C(=O)N4CCN(C(=O)C5(O)CC5)CC4)c(F)c3)cc2n1 | < 500 | 
3 | Cc1nn(-c2ccc(C(=O)N3CCN(C(=O)C4(O)CC4)CC3)c(F)c2)c2ccccc12 | < 500 | 
4 | O=C(c1ccc(-c2cccc(S(=O)(=O)C3CC3)c2)c(Cl)c1)N1CCN(C(=O)C2(O)CC2)CC1 | < 500 | 
5 | O=C(c1ccc(N2CCCc3ccccc32)cc1)N1CCN(C(=O)C2(O)CC2)CC1 | < 500 | 
6 | CC1(C)CN(C(=O)C2(O)CC2)CCN1C(=O)c1ccc(-c2nc3ccc(F)cc3o2)cc1 | < 500 | 
7 | O=C(c1ccc(N2CCc3ccc(F)cc3C2)cc1)N1CCN(C(=O)C2(O)CC2)CC1 | < 500 | 
8 | C[C@H]1CN(C(=O)c2ccc(-c3ccc(Cl)cc3F)cc2)CCN1C(=O)C1(O)CC1 | < 500 | 
9 | C[C@H]1CN(C(=O)c2ccc(-c3nc4ccc(F)cc4o3)cc2)CCN1C(=O)C1(O)CC1 | < 500 | 
10 | C[C@@H]1CN(C(=O)c2ccc(-c3nc4ccc(F)cc4o3)cc2)C[C@H](C)N1C(=O)C1(O)CC1 | < 500 | 
11 | C[C@@H]1CN(C(=O)C2(O)CC2)CCN1C(=O)c1ccc(-c2ccc(Cl)cc2F)cc1 | < 500 | 
12 | C[C@@H]1CN(C(=O)C2(O)CC2)C[C@H](C)N1C(=O)c1ccc(-c2ccc3c(c2)ncn3C)cc1 | < 500 | 
13 | C[C@H]1CN(C(=O)C2(O)CC2)CCN1C(=O)c1ccc(-c2ccc3c(c2)ncn3C)cc1 | < 500 | 
14 | O=C(c1ccc(-c2ccc3nncn3n2)cc1)N1CCN(C(=O)C2(O)CC2)CC1 |  | IC50 (FASN enzymatic assay, Table 2-2): 500 to 5000 nM
15 | Cn1ccc2cc(-c3ccc(C(=O)N4CCN(C(=O)C5(O)CC5)CC4)cn3)ccc21 | < 500 | 
16 | O=C(c1ccc(-c2ccc(Cl)cc2F)cc1)N1CCN(C(=O)C2(O)CC2)[C@H](CO)C1 |  | IC50 [1]: ≥ 5000 nM
17 | C[C@@H]1CN(C(=O)C2(O)CC2)[C@@H](C)CN1C(=O)c1ccc(-c2ccc3cnccc3c2)cc1 |  | IC50 [1]: ≥ 5000 nM
18 | O=C(c1ccc(-c2cccc(NS(=O)(=O)C3CCCC3)c2)cc1)N1CCN(C(=O)C2(O)CC2)CC1 | < 500 | 
19 | O=C(Nc1cccc(-c2ccc(C(=O)N3CCN(C(=O)C4(O)CC4)CC3)cc2)c1)C1CC1 | < 500 | 
20 | N#CC1(c2cccc(-c3ccc(C(=O)N4CCN(C(=O)C5(O)CC5)CC4)c(F)c3)c2)CC1 [1-(3-{3-fluoro-4-[4-(1-hydroxycyclopropanecarbonyl)piperazine-1-carbonyl]phenyl}phenyl)cyclopropane-1-carbonitrile] | < 500 | 
21 | N#CC1(c2cccc(-c3ccc(C(=O)N4CCN(C(=O)C5(O)CC5)CC4)cc3)c2)CCC1 [1-(3-{4-[4-(1-hydroxycyclopropanecarbonyl)piperazine-1-carbonyl]phenyl}phenyl)cyclobutane-1-carbonitrile] | < 500 | 
22 | O=C(c1ccc(-c2ccc3c(c2)ncn3CCO)cc1)N1CCN(C(=O)C2(O)CC2)CC1 [1-(4-{4-[1-(2-hydroxyethyl)-1H-1,3-benzodiazol-5-yl]benzoyl}piperazine-1-carbonyl)cyclopropan-1-ol] | < 500 | 
23 | O=C(c1ccc(-c2ccc3ncn(CCO)c3c2)cc1)N1CCN(C(=O)C2(O)CC2)CC1 [1-(4-{4-[1-(2-hydroxyethyl)-1H-1,3-benzodiazol-6-yl]benzoyl}piperazine-1-carbonyl)cyclopropan-1-ol] | < 500 | 
24 | Nc1cc(-c2cccc(-c3ccc(C(=O)N4CCN(C(=O)C5(O)CC5)CC4)c(F)c3)c2)no1 [1-(4-{4-[3-(5-amino-1,2-oxazol-3-yl)phenyl]-2-fluorobenzoyl}piperazine-1-carbonyl)cyclopropan-1-ol] | < 500 | 
25 | O=C(c1ccc(-c2cccc(S(=O)(=O)C3CC3)c2)cc1F)N1CCN(C(=O)C2(O)CC2)CC1 [1-(4-{4-[3-(cyclopropanesulfonyl)phenyl]-2-fluorobenzoyl}piperazine-1-carbonyl)cyclopropan-1-ol] | < 500 | 
26 | Cn1cc(-c2ccc(-c3ccc(C(=O)N4CCN(C(=O)C5(O)CC5)CC4)cc3)cc2)cn1 [1-(4-{4-[4-(1-methyl-1H-pyrazol-4-yl)phenyl]benzoyl}piperazine-1-carbonyl)cyclopropan-1-ol] | < 500 | 
27 | O=C(c1cccc(Oc2ccccc2)c1)N1CCN(C(=O)C2(O)CC2)CC1 [1-({4-[(3-phenoxyphenyl)carbonyl]piperazin-1-yl}carbonyl)cyclopropan-1-ol] |  | IC50 [1]: ≥ 5000 nM
28 | O=C(c1ccc(Oc2ccccc2)cc1)N1CCN(C(=O)C2(O)CC2)CC1 [1-({4-[(4-phenoxyphenyl)carbonyl]piperazin-1-yl}carbonyl)cyclopropan-1-ol] |  | IC50 [1]: ≥ 5000 nM

More lines, main results first:

Row | IC50 [nM] | SMILES | other results
29 | < 500 | N#CC1(c2cccc(-c3ccc(C(=O)N4CCN(C(=O)C5(O)CC5)CC4)cc3)c2)CC1 | 
30 | < 500 | Cc1n[nH]c2cc(-c3ccc(C(=O)N4CCN(C(=O)C5(O)CC5)CC4)c(F)c3)ccc12 | 
31 | < 500 | NC1(C(=O)N2CCN(C(=O)c3ccc(-c4n[nH]c5c(F)cccc45)cc3F)CC2)CC1 | 
32 | < 500 | Cn1cnc2cc(-c3ccc(C(=O)N4CCN(C(=O)C5(N)CCC5)CC4)cc3)ccc21 | 
33 | < 500 | Cn1ncc2ccc(-c3ccc(C(=O)N4CCN(C(=O)C5(N)CC5)CC4)cc3)cc21 | 
34 | < 500 | Cn1nc2ccc(-c3ccc(C(=O)N4CCN(C(=O)C5(O)CC5)CC4)cc3)cc2n1 | 
35 | < 500 | Cc1n[nH]c2c(-c3ccc(C(=O)N4CCN(C(=O)C5(N)CC5)CC4)cc3)cccc12 | 
36 | < 500 | O=C(c1ccc(-c2ccc(-c3cn[nH]c3)cc2)cc1)N1CCN(C(=O)C2(O)CC2)CC1 | 
37 | < 500 | Cc1nc2cc(Cl)cc(-c3ccc(C(=O)N4CCN(C(=O)C5(O)CC5)CC4)cc3)c2[nH]1 | 
38 | < 500 | O=C(c1ccc(-c2cc3[nH]nnc3cc2F)cc1)N1CCN(C(=O)C2(O)CC2)CC1 | 
39 | < 500 | O=C(c1ccc(-c2ccc(Cl)cc2)cc1)N1CCN(C(=O)C2(O)CC2)CC1 | 
40 | < 500 | COc1ccc(OC(F)(F)F)cc1-c1ccc(C(=O)N2CCN(C(=O)C3(O)CC3)CC2)cc1 | 
41 | < 500 | O=C(c1ccc(-c2cccc3nsnc23)cc1)N1CCN(C(=O)C2(O)CC2)CC1 | 
42 | < 500 | O=C(c1ccc(-c2cccc(OCC3CC3)c2)cc1)N1CCN(C(=O)C2(O)CC2)CC1 | 
43 | < 500 | O=C(c1ccc(-c2nc3ccccn3c2Cl)cc1)N1CCN(C(=O)C2(O)CC2)CC1 | 
44 | < 500 | O=C(c1ccc(-c2cccc(OC3CC3)c2)cc1)N1CCN(C(=O)C2(O)CC2)CC1 | 
45 | < 500 | O=C(c1ccc(-c2cc(F)c3[nH]ccc3c2)cc1)N1CCN(C(=O)C2(O)CC2)CC1 | 
46 | < 500 | Cc1nn(C)c2ccc(-c3ccc(C(=O)N4CCN(C(=O)C5CCO5)CC4)cc3)cc12 (stereo not shown) | 
47 | < 500 | CC1(c2cccc(-c3ccc(C(=O)N4CCN(C(=O)C5(O)CC5)CC4)cc3)c2)NC(=O)NC1=O (stereo not shown) | 
48 | < 500 | O=C(c1ccc(-c2ccc3[nH]c(=O)ccc3c2)cc1)N1CCN(C(=O)C2(O)CC2)CC1 | 
49 | < 500 | N#CC1(c2cccc(-c3ccc(C(=O)N4CCN(C(=O)C5(N)CC5)CC4)cc3)c2)CC1 [1-(3-{4-[4-(1-aminocyclopropanecarbonyl)piperazine-1-carbonyl]phenyl}phenyl)cyclopropane-1-carbonitrile] | 
50 | < 500 | O=C(c1ccc(-c2cccc(N3CCNC3=O)c2)cc1)N1CCN(C(=O)C2(O)CC2)CC1 [1-(3-{4-[4-(1-hydroxycyclopropanecarbonyl)piperazine-1-carbonyl]phenyl}phenyl)imidazolidin-2-one] | 
51 | < 500 | O=C(c1ccc(-c2cccc(N3CCCC3=O)c2)cc1)N1CCN(C(=O)C2(O)CC2)CC1 [1-(3-{4-[4-(1-hydroxycyclopropanecarbonyl)piperazine-1-carbonyl]phenyl}phenyl)pyrrolidin-2-one] | 
52 | < 500 | O=C(c1ccc(-c2ccc3[nH]c(CO)nc3c2)cc1)N1CCN(C(=O)C2(O)CC2)CC1 [1-(4-{4-[2-(hydroxymethyl)-1H-1,3-benzodiazol-5-yl]benzoyl}piperazine-1-carbonyl)cyclopropan-1-ol] | 
53 | < 500 | Nc1nc(-c2cccc(-c3ccc(C(=O)N4CCN(C(=O)C5(O)CC5)CC4)cc3)c2)cs1 [1-(4-{4-[3-(2-amino-1,3-thiazol-4-yl)phenyl]benzoyl}piperazine-1-carbonyl)cyclopropan-1-ol] | 
54 | < 500 | Nc1cc(-c2cccc(-c3ccc(C(=O)N4CCN(C(=O)C5(O)CC5)CC4)cc3)c2)no1 [1-(4-{4-[3-(5-amino-1,2-oxazol-3-yl)phenyl]benzoyl}piperazine-1-carbonyl)cyclopropan-1-ol] | 
55 | < 500 | Nc1nc(-c2cccc(-c3ccc(C(=O)N4CCN(C(=O)C5(O)CC5)CC4)cc3)c2)n[nH]1 [1-(4-{4-[3-(5-amino-1H-1,2,4-triazol-3-yl)phenyl]benzoyl}piperazine-1-carbonyl)cyclopropan-1-ol] | 
56 | < 500 | Nc1cc(-c2cccc(-c3ccc(C(=O)N4CCN(C(=O)C5(O)CC5)CC4)cc3)c2)n[nH]1 [1-(4-{4-[3-(5-amino-1H-pyrazol-3-yl)phenyl]benzoyl}piperazine-1-carbonyl)cyclopropan-1-ol] | 
57 | < 500 | Cc1nc(-c2cccc(-c3ccc(C(=O)N4CCN(C(=O)C5(O)CC5)CC4)cc3)c2)no1 [1-(4-{4-[3-(5-methyl-1,2,4-oxadiazol-3-yl)phenyl]benzoyl}piperazine-1-carbonyl)cyclopropan-1-ol] | 
58 | < 500 | Cc1nnc(-c2cccc(-c3ccc(C(=O)N4CCN(C(=O)C5(O)CC5)CC4)cc3)c2)s1 [1-(4-{4-[3-(5-methyl-1,3,4-thiadiazol-2-yl)phenyl]benzoyl}piperazine-1-carbonyl)cyclopropan-1-ol] | 
